Data published in publication PMC3283556, “The Activities of Current Antimalarial Drugs on the Life Cycle Stages of Plasmodium: A Comparative Study with Human and Rodent Parasites” (PLoS Medicine, 2012).
“Also recorded” adds a separate entry of the source. Read-outs that look alike come from different tables or passages of the source.

How the values were obtained:
[1] = system: P. falciparum mature gametocytes / male gamete exflagellation; test: P. falciparum exflagellation assay; type: cell-based, Plasmodium falciparum; conditions: for inhibition at 10 µM: Plasmodium falciparum
[2] = system: P. berghei ookinete formation; test: P. berghei ookinete development assay; type: cell-based, Plasmodium berghei; conditions: 10 µM
Procedure: Compounds and P. berghei gametocyte-infected blood were dispensed in a 96-well plate containing ookinete medium. After 24 h at 19°C, Giemsa-stained ookinetes were counted under the microscope (×40) as previously described,[28].
Figure 3 The transmission-blocking potential of selected antimalarials in three bioassays that cover different phases of Plasmodium vector stage development. (A) Assays examined exflagellation (P. falciparum), ookinete formation (P. berghei), or oocyst formation (P. falciparum). All antimalarials were screened at 10 µM. (B) The biological content of the in vitro P. berghei ookinete assay spans gamete formation, fertilization, zygote development, and ookinete formation. Ookinete formation was insensitive to most of the antimalarials tested. […] (D) The in vitro P. falciparum exflagellation assay exposes mature gametocytes to antimalarials for 24 h before triggering exflagellation. […] All experiments in triplicate. (E) The in vivo P. falciparum oocyst assay differs from the P. berghei oocyst assay in that mature gametocytes were exposed to the antimalarials in culture for 24 h before feeding to mosquitoes. […] NPC1161-B, lumefantrine, halofantrine, and mefloquine +RS isomer were also active. (n = 4–61 observations; average ± standard error of the mean [SEM]).

[3] = system: P. yoelii liver stage parasites (liver schizonts); test: P. yoelii liver stage assay in HepG2 cells (EEF immunofluorescence); type: cell-based, Plasmodium yoelii; conditions: for IC50: Plasmodium yoelii
[4] = 10 µM, 24 h exposure of mature gametocytes

SMILES	effect on exflagellation (words) [1, 4]	effect on exflagellation (words) ([1]; 10 µM, 24 h exposure of mature gametocytes, listed as NPC1161-B)	inhibition at 10 µM ([1]; read-out: inhibition of exflagellation, 10 µM, 24 h exposure of mature gametocytes) [%]	inhibition at 10 µM ([1]; 10 μM, box linked to gametocytes/exflagellation, read-out: Inhibition at 10 μM (gametocytes/exflagellation, Figure 5)) [%]	effect on ookinete formation [2]	IC50 ([3]; HepG2, box linked to liver schizont, read-out: IC50 (liver schizont, Figure 5)) [nM]	IC50 ([3]; development of P. yoelii liver schizonts following infection of HepG2 cells, read-out: IC50 Parasite) [nM]	potency range against liver stages ([3]; dose response)	enhancement (stimulation) of exflagellation [1, 4] [%]	IC50 ([3]; HepG2, development of P. yoelii liver schizonts following infection of HepG2 cells, read-out: IC50 Parasite) [nM]
COc1cc(N[C@H](C)CCCN)c2nccc(C)c2c1Oc1ccc(Cl)c(Cl)c1 [NPC-1161B]	inhibited exflagellation totally; also recorded: inhibit exflagellation in vitro; also recorded: inhibited both exflagellation and oocyst production	showed potency	> 70	> 60	all assays except the ookinete assay	< 1000	720 ± 70	submicromolar range	–	–
CCCCN(CCCC)CCC(O)c1cc2c(Cl)cc(Cl)cc2c2cc(C(F)(F)F)ccc12 (centres unmarked) [halofantrine]	only moderate or no inhibition of exflagellation	–	–	–	–	–	–	–	45	2320 ± 1350
